According to patent US6737383B1, “Herbicidal oxadiazolidines” (priority 1999, dated 2004):

Tests used:
rice = assay: Test B flood test rice; type: in vivo, Oryza sativa
Summary of the method: (§1)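 Each value is a visual injury score relative to controls, with 10 meaning complete control and 0 no effect. Evaluation took place twelve to sixteen days after the 2-leaf-stage plants were treated and kept in the greenhouse.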

velvetleaf = assay: Test B pre/postemergence velvetleaf; type: in vivo, Abutilon theophrasti
Summary of the method: (§2)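 Response is a visual 0-to-10 score relative to untreated plants, where 0 means no effect and 10 means complete control, taken twelve to sixteen days after application. Treatments went onto soil at planting and onto foliage of 1- to 4-leaf plants, using a surfactant-containing non-phytotoxic solvent.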

smallflower flatsedge = assay: Test B flood test smallflower flatsedge; type: in vivo, Cyperus difformis
Summary of the method: as §1

pigweed = assay: Test B pre/postemergence pigweed; type: in vivo, Amaranthus retroflexus
Summary of the method: as §2

cocklebur = assay: Test B pre/postemergence cocklebur; type: in vivo, Xanthium strumarium
Summary of the method: as §2

bedstraw = assay: Test B pre/postemergence bedstraw; type: in vivo, Galium aparine; details: Preemergence
Summary of the method: as §2

giant foxtail = assay: Test B pre/postemergence giant foxtail; type: in vivo, Setaria faberii
Summary of the method: as §2

bamyardgrass = assay: Test B flood test barnyardgrass; type: in vivo, Echinochloa crus-galli
Summary of the method: as §1

sugar beet = assay: Test B pre/postemergence sugar beet; type: in vivo, Beta vulgaris
Summary of the method: as §2

crabgrass = assay: Test B pre/postemergence crabgrass; type: in vivo, Digitaria sanguinalis
Summary of the method: as §2

blackgrass = assay: Test B pre/postemergence blackgrass; type: in vivo, Alopecurus myosuroides
Summary of the method: as §2

soybean = assay: Test B pre/postemergence soybean; type: in vivo, Glycine max
Summary of the method: as §2

surinam grass = assay: Test B pre/postemergence surinam grass; type: in vivo, Brachiaria decumbens
Summary of the method: as §2

purple nutsedge = assay: Test B pre/postemergence purple nutsedge; type: in vivo, Cyperus rotundus
Summary of the method: as §2

corn = assay: Test B pre/postemergence corn; type: in vivo, Zea mays
Summary of the method: as §2

wild oat = assay: Test B pre/postemergence wild oat; type: in vivo, Avena fatua
Summary of the method: as §2

[1] = Rate 62 g/ha, flood test species, Pre-emergence, visual evaluation after twelve to sixteen days
[2] = Rate 125 g/ha, under heading Pre-emergence, flood test species, visual evaluation after twelve to sixteen days
[3] = Rate 250 g/ha, Pre-emergence (flood test species), scale 0 to 10, 0 is no effect, 10 is complete control
[4] = Rate 500 g/ha, Pre-emergence section of Table B, 0 to 10 scale (0 no effect, 10 complete control)
[5] = Postemergence, Rate 62 g/ha, scale 0 to 10, 0 is no effect, 10 is complete control
[6] = Postemergence, Rate 125 g/ha, scale of 0 to 10 where 0 is no effect and 10 is complete control
[7] = Postemergence, Rate 250 g/ha, scale of 0 to 10, 0 is no effect, 10 is complete control
[8] = Preemergence, Rate 62 g/ha, scale 0 to 10 (0 no effect, 10 complete control)
[9] = Preemergence, Rate 125 g/ha, scale of 0 to 10 where 0 is no effect and 10 is complete control
[10] = Preemergence, Rate 250 g/ha, scale 0 to 10 (0 no effect, 10 complete control)
[11] = Preemergence, Rate 500 g/ha, scale of 0 to 10 where 0 is no effect and 10 is complete control
[12] = Postemergence, Rate 500 g/ha, scale of 0 to 10 where 0 is no effect and 10 is complete control

CC(C)N(C(=O)n1oc(=O)n(CSC#N)c1=O)c1ccc(F)cc1 [Compound 618]
Plant response rating, Rice (0 to 10 scale, 0 is no effect, 10 is complete control) (rice; [1]): 0
Rice plant response rating (0 to 10 scale, 0 is no effect, 10 is complete control) (rice; [2]): 0
Rice plant response rating (rice; [3]): 0
Rice plant response rating (rice; [4]): 0
Plant response rating, Velvetleaf (velvetleaf; [5]): 0
Plant response rating, Velvetleaf (velvetleaf; [6]): 0
Velvetleaf plant response rating (velvetleaf; [7]): 0
Velvetleaf plant response rating (velvetleaf; [8]): 0
Velvetleaf plant response rating (velvetleaf; [9]): 0
Plant response rating, Velvetleaf (velvetleaf; [10]): 0
Plant response rating, Velvetleaf (velvetleaf; [11]): 0
Plant response rating, S. Flatsedge (0 to 10 scale, 0 is no effect, 10 is complete control) (smallflower flatsedge; [1]): 0
S. Flatsedge plant response rating (0 to 10 scale, 0 is no effect, 10 is complete control) (smallflower flatsedge; [2]): 0
S. Flatsedge plant response rating (smallflower flatsedge; [3]): 0
S. Flatsedge plant response rating (smallflower flatsedge; [4]): 0
Plant response rating, Redroot pigweed (pigweed; [5]): 0
Plant response rating, Redroot pigweed (pigweed; [6]): 0
Redroot pigweed plant response rating (pigweed; [7]): 0
Redroot pigweed plant response rating (pigweed; [8]): 0
Redroot pigweed plant response rating (pigweed; [9]): 0
Plant response rating, Redroot pigweed (pigweed; [10]): 0
Plant response rating, Redroot pigweed (pigweed; [11]): 0
Plant response rating, Cocklebur (cocklebur; [5]): 0
Cocklebur plant response rating (cocklebur; [7]): 0
Plant response rating, Cocklebur (cocklebur; [12]): 0
Cocklebur plant response rating (cocklebur; [8]): 0
Cocklebur plant response rating (cocklebur; [9]): 0
Plant response rating, Cocklebur (cocklebur; [11]): 0
Bedstraw plant response rating (bedstraw; Rate 62 g/ha, scale 0 to 10 (0 no effect, 10 complete control)): 0
Bedstraw plant response rating (bedstraw; Rate 125 g/ha, scale of 0 to 10 where 0 is no effect and 10 is complete control): 0
Plant response rating, Bedstraw (bedstraw; Rate 250 g/ha, scale 0 to 10 (0 no effect, 10 complete control)): 0
Bedstraw plant response rating (bedstraw; Rate 500 g/ha, scale of 0 to 10 where 0 is no effect and 10 is complete control): 0
Plant response rating, Giant foxtail (giant foxtail; [5]): 0
Plant response rating, Giant foxtail (giant foxtail; [6]): 0
Giant foxtail plant response rating (giant foxtail; [7]): 0
Plant response rating, Giant foxtail (giant foxtail; [12]): 0
Giant foxtail plant response rating (giant foxtail; [8]): 2
Giant foxtail plant response rating (giant foxtail; [9]): 2
Plant response rating, Giant foxtail (giant foxtail; [10]): 2
Plant response rating, Giant foxtail (giant foxtail; [11]): 0
Plant response rating, Barnyardgrass (0 to 10 scale, 0 is no effect, 10 is complete control) (bamyardgrass; [1]): 0
Barnyardgrass plant response rating (0 to 10 scale, 0 is no effect, 10 is complete control) (bamyardgrass; [2]): 0
Barnyardgrass plant response rating (bamyardgrass; [3]): 0
Barnyardgrass plant response rating (bamyardgrass; [4]): 0
Plant response rating, Sugarbeets (sugar beet; [5]): 0
Plant response rating, Sugarbeets (sugar beet; [6]): 0
Sugarbeets plant response rating (sugar beet; [7]): 0
Sugarbeets plant response rating (sugar beet; [8]): 0
Sugarbeets plant response rating (sugar beet; [9]): 0
Plant response rating, Sugarbeets (sugar beet; [10]): 0
Plant response rating, Sugarbeets (sugar beet; [11]): 0
Plant response rating, Crabgrass (crabgrass; [5]): 0
Plant response rating, Crabgrass (crabgrass; [6]): 0
Crabgrass plant response rating (crabgrass; [7]): 0
Plant response rating, Crabgrass (crabgrass; [12]): 0
Crabgrass plant response rating (crabgrass; [8]): 0
Crabgrass plant response rating (crabgrass; [9]): 0
Plant response rating, Crabgrass (crabgrass; [10]): 0
Plant response rating, Crabgrass (crabgrass; [11]): 2
Plant response rating, Blackgrass (blackgrass; [5]): 0
Plant response rating, Blackgrass (blackgrass; [6]): 0
Blackgrass plant response rating (blackgrass; [7]): 0
Plant response rating, Blackgrass (blackgrass; [12]): 0
Blackgrass plant response rating (blackgrass; [8]): 0
Blackgrass plant response rating (blackgrass; [9]): 0
Plant response rating, Blackgrass (blackgrass; [10]): 0
Blackgrass plant response rating (blackgrass; [11]): 0
Plant response rating, Soybean (soybean; [5]): 0
Plant response rating, Soybean (soybean; [6]): 0
Soybean plant response rating (soybean; [7]): 6
Soybean plant response rating (soybean; [8]): 0
Soybean plant response rating (soybean; [9]): 0
Plant response rating, Soybean (soybean; [10]): 0
Plant response rating, Soybean (soybean; [11]): 0
Plant response rating, B. signalgrass (surinam grass; [5]): 0
Plant response rating, B. signalgrass (surinam grass; [6]): 0
B. signalgrass plant response rating (surinam grass; [7]): 0
Plant response rating, B. signalgrass (surinam grass; [12]): 0
B. signalgrass plant response rating (surinam grass; [8]): 0
B. signalgrass plant response rating (surinam grass; [9]): 0
Plant response rating, B. signalgrass (surinam grass; [10]): 0
B. signalgrass plant response rating (surinam grass; [11]): 0
Plant response rating, Nutsedge (purple nutsedge; [5]): 0
Plant response rating, Nutsedge (purple nutsedge; [6]): 0
Nutsedge plant response rating (purple nutsedge; [7]): 0
Nutsedge plant response rating (purple nutsedge; [9]): 0
Plant response rating, Nutsedge (purple nutsedge; [11]): 0
Plant response rating, Corn (corn; [5]): 0
Plant response rating, Corn (corn; [6]): 0
Corn plant response rating (corn; [7]): 0
Plant response rating, Corn (corn; [12]): 0
Corn plant response rating (corn; [8]): 0
Corn plant response rating (corn; [9]): 0
Plant response rating, Corn (corn; [10]): 0
Plant response rating, Corn (corn; [11]): 0
Plant response rating, Wild oats (wild oat; [5]): 0
Plant response rating, Wild oats (wild oat; [6]): 0
Wild oats plant response rating (wild oat; [7]): 0
Wild oats plant response rating (wild oat; [8]): 0
Wild oats plant response rating (wild oat; [9]): 0
Plant response rating, Wild oats (wild oat; [10]): 0
Plant response rating, Wild oats (wild oat; [11]): 0
